In test [1] the test system is European red mite Panonychus ulmi. Briefly: Ovicide activity on European red mite eggs on beet leaf discs (Example 6). It is filed as in vivo. The note with it: after 8 days; leaf discs immersed five seconds; oil 1.5%, meal 2 g l^−1, hexythiazox 50 mg p.a. l^−1. The procedure:
Beet leaf discs measuring 60 mm were placed in a 90 mm diameter Petri dish and kept in a climatic cell at 24° C., 75% R.H. with 17 hours of light. Fifteen female mites were placed on each leaf disc to lay their eggs. The females were removed after 24 hours and the eggs were counted. Each group consisted of three leaf discs. The treatments were carried out with the “deep test” method: the leaf discs were immersed for five seconds in a suspension consisting of 1.5% vegetable oil, 1.5% vegetable oil+2 g l^−1 carinata meal, 1.5% UF mineral oil+2 g l^−1 carinata meal or the acaricide hexythiazox Matacar (Sipcam) at a dose of 50 mg p.a. I^−1. The control was immersed in water. The ovicide activity was assessed starting on the fourth day and every 2 days up to the eighth day, calculating the percentage of hatched eggs estimated indirectly by counting the live offspring.

Another test concerns Cacopsylla pyri. Briefly: Field test on pear lice (Example 11). Format: in vivo. The procedure: Pear plants with a high level of lice infestation were treated on May 6 and 20 2006. […]

With `C[C@@H]1[C@@H](c2ccc(Cl)cc2)SC(=O)N1C(=O)NC1CCCCC1` [commercial acaricide, hexythiazox], the hatched eggs in test [1] amounted to 23.4%.

In the case of Abamectin, the surviving offspring in the test with Cacopsylla pyri (ten days after the first treatment) is on record as 22. The “offspring or nymphs found” value in the test with Cacopsylla pyri (third observation (30 days after the second treatment)) is “no offspring or nymphs were found”.

The values above are taken from patent US20080199451A1, “Composition for the Treatment and/or Prevention of Attacks by Biological Agents” (priority 2005, published 2008).
